Data taken from patent publication US9873657B2, “Derivatives of benzyl benzoate” (ROBERTET S.A., priority 2014, dated 2018).

Test system: Corynaebacterium xerosis
Experiment: In vitro deodorant activity and durability test (CFU counting in culture vials)
Assay type: cell-based
Conditions: for Number of CFU/ml at t + 24 h / Number of CFU/ml at t + 48 h: 37° C.
Method: The test is carried out in vitro.
The compound 1 and the benzyl-4-benzoyloxybenzoate (reference compound described in the international patent application WO 91/07165) are both 10% diluted in benzylbenzoate, and incorporated in a specific culture medium at the moment of distribution in 50 ml vials.
The composition of the vials is characterized as follows: • Vial No. 1 • Brain Heart Infusion (medium)+0.5% Tween 40 • Compound 1 or benzyl-4-benzoyloxybenzoate—0.25% • Enzyme (Lipozyme® CALB, Novozymes)—2% • Bacteria (Corynaebacterium xerosis)—about 10^6 CFU/ml • Vial No. 2 • Brain Heart Infusion (medium)+0.5% Tween 40 • Compound 1 or benzyl-4-benzoyloxybenzoate—0.25% • Bacteria (Corynaebacterium xerosis)—about 10^6 CFU/ml • Vial No. 3 • Brain Heart Infusion (medium)+0.5% Tween 40 • Compound 1 or benzyl-4-benzoyloxybenzoate—0.25% • Enzyme (Lipozyme® CALB, Novozymes)—2%
Afterwards, the vials are incubated under stirring at 37° C. for 48 hours.
After 24 hours, a collection is performed, and 100 μl of a dilution to 1/1000th are spread out on gelose. Counting of the number of CFU (Colony Forming Units) is performed.
It is the comparison of the ratios between the amount of CFU/ml at a time t for the product+enzyme and the product alone which allows assessing the inhibiting activity of the product.

[1] = Vial 1: product 0.25% + enzyme (Lipozyme CALB) 2% + bacteria, Brain Heart Infusion + 0.5% Tween 40
[2] = Vial 2: product 0.25% + bacteria, no enzyme, Brain Heart Infusion + 0.5% Tween 40
[3] = Vial 3: product 0.25% + enzyme 2%, no bacteria added

SMILES | Number of CFU/ml at t + 24 h [1] | Number of CFU/ml at t + 48 h [1] | Number of CFU/ml at t + 24 h [2] | Number of CFU/ml at t + 48 h [2] | Number of CFU/ml at t + 24 h [3] [CFU/ml] | Number of CFU/ml at t + 48 h [3] [CFU/ml] | deodorant activity compared with benzyl-4-benzoyloxybenzoate (after 24 hours) | deodorant activity relative to the benzyl-4-benzoyloxybenzoate (after 48 hours)
O=C(OCc1ccccc1)c1ccc(OC(=O)c2ccc(Oc3ccccc3)cc2)cc1 [Compound 1, Benzyl[4-(4-Phenoxy)Benzoyloxy]Benzoate] | 10^7 CFU/ml | 36000 ^ CFU/ml | 10^8 CFU/ml | 3.2 × 10^6 CFU/ml | 0 | 0 | comparable | significantly higher
O=C(OCc1ccccc1)c1ccc(OC(=O)c2ccccc2)cc1 [benzyl-4-benzoyloxybenzoate, reference compound] | 2.7 × 10^6 CFU/ml | 10^8 CFU/ml | 10^8 CFU/ml | 10^9 CFU/ml | 0 | 0 | – | –
